Where a name gives a salt, the structure may show the parent alone. A value given as a limit tells only on which side of the number the result lay.

In general, GI50 refers to the concentration giving 50% growth inhibition. The term IC50 denotes the point on the concentration scale where inhibition reaches its midpoint.

Assay [1] concerns HeLa cells. Briefly: Cancer cell growth inhibition evaluation (MTT assay). It is filed as cell-based. Conditions: Homo sapiens; 48 hours with compound, MTT; read-out: GI50 (μM) HeLa. The protocol:
(§1) Evaluation was performed by measuring the inhibitory activities of a compound against the growth of a human cervical cancer-derived cell line, HeLa cells, and a human neuroblastoma cell line, SH-SY5Y cells. Details thereof are shown below. […] This assay involves, as a principle thereof, measuring an absorbance at the time of color development through a reaction of NADH, which is contained in the mitochondria of viable cells, and MTT to measure the amount of NADH. The assay was performed by the following procedure. […] After the culture, a compound was added. Then, the cells were cultured for an additional 48 hours, and then 5 mg/ml MTT liquid was added at 10 μl per well. The cells were cultured for an additional 3 hours in a CO2 incubator. A solubilization solution (0.04 mol/l hydrochloric acid-isopropanol) was added at 100 μl per well and the mixture was vigorously vortexed. After that, an absorbance at 560 nm was measured with Fusion-aFP (manufactured by PerkinElmer) and the amount of viable cells was determined.
On the technique in general: Formazan colour is commonly taken as a measure of viable cells.

The test system of assay [2] is SH-SY5Y cells. The assay is described as above. It is filed as cell-based. Conditions: Homo sapiens, MTT, read-out: GI50 (μM) SH-SY5Y. The protocol: as §1
In assay [3] the target is T1, LSD1 (Homo sapiens, UniProt O60341).
T1 construct: five histidine residues added to the N-terminus of full-length LSD1 (1-851aa); 5xHis (five histidine residues) (N); made in house; host or cells: Escherichia coli
Briefly: LSD1 inhibition test (peroxidase-coupled absorbance assay). It is filed as biochemical. Conditions: 25° C., 30 minutes, histone H3-lysine 4 dimethyl peptide.

With `NC1CC1c1ccccc1` (stereo not drawn) [Comp. Ex. 1, trans-2-Phenylcyclopropylamine, reference compound], the 50% growth inhibitory concentration (GI50) in assay [1] was more than 500 µM; in assay [2], 503 µM.
In assay [3], `CC(C)(C)OC(=O)N[C@@H](CCCCNC1CC1c1ccccc1)C(=O)NCc1ccccc1` (stereo partly drawn) [Example 2, 2-(N-tert-Butoxycarbonyl)amino-6-(trans-2-phenylcyclopropan-1-amino)-N-benzylhexanamide] registered an IC50 of 1.2 µM.
In assay [3], `N[C@@H](CCCCNC1CC1c1ccccc1)C(=O)NCc1ccccc1` (stereo partly drawn) [Example 3, 2-Amino-6-(trans-2-phenylcyclopropan-1-amino)-N-benzylhexanamide Dihydrochloride] came in with an IC50 of 0.06 µM.
`Cc1ccc(C(=O)N[C@@H](CCCCNC2CC2c2ccccc2)C(=O)NCc2ccccc2)cc1` (stereo partly drawn) [Example 4, 2-[N-(4-Methylbenzenecarbonyl)]amino-6-(trans-2-phenylcyclopropan-1-amino)-N-benzylhexanamide Trifluoroacetate] displayed a half-maximal inhibitory concentration (IC50) in assay [3] of 0.44 µM. Against the preceding compound, the IC50 is about 7.3-fold higher.
For the compound `CC(C)(C)c1ccc(C(=O)N[C@@H](CCCCNC2CC2c2ccccc2)C(=O)NCc2ccccc2)cc1` (stereo partly drawn) [Example 5, 2-[N-(4-tert-Butylbenzenecarbonyl)]amino-6-(trans-2-phenylcyclopropan-1-amino)-N-benzylhexanamide Hydrochloride], 0.79 µM corresponded to half-maximal inhibition in assay [3] (IC50). Further, the GI50 turned out to be 12 µM in assay [1] and 4.8 µM in assay [2].
Compound `O=C(N[C@@H](CCCCNC1CC1c1ccccc1)C(=O)NCc1ccccc1)c1ccc(Cl)cc1` (stereo partly drawn) [Example 6, 2-[N-(4-Chlorobenzenecarbonyl)]amino-6-(trans-2-phenylcyclopropan-1-amino)-N-benzylhexanamide Hydrochloride] showed an IC50 in assay [3] of 0.2 µM. In addition, the 50% growth inhibitory concentration (GI50) was 13 µM in assay [1] and 11 µM in assay [2].
Turning to `O=C(N[C@@H](CCCCNC1CC1c1ccccc1)C(=O)NCc1ccccc1)c1ccc(F)cc1` (stereo partly drawn) [Example 7, 2-[N-(4-Fluorobenzenecarbonyl)]amino-6-(trans-2-phenylcyclopropan-1-amino)-N-benzylhexanamide Hydrochloride], the midpoint of inhibition in assay [3], the IC50, lay at 0.25 µM.
`O=C(N[C@@H](CCCCNC1CC1c1ccccc1)C(=O)NCc1ccccc1)c1ccc(C(F)(F)F)cc1` (stereo partly drawn) [Example 9, 2-[N-(4-Trifluoromethylbenzenecarbonyl)]amino-6-(trans-2-phenylcyclopropan-1-amino)-N-benzylhexanamide Hydrochloride] had an IC50 in assay [3] of 0.38 µM. Further, the GI50 in assay [1] is 13 µM; in assay [2], 5.4 µM.
In assay [3], `NCCNC(=O)c1cccc(C(=O)N[C@@H](CCCCNC2CC2c2ccccc2)C(=O)NCc2ccccc2)c1` (stereo partly drawn) [Example 10, 2-{3-[(2-Amino)ethylcarbamoyl]benzenecarbonylamino)-6-(trans-2-phenylcyclopropan-1-amino)-N-benzylhexanamide Ditrifluoroacetate] came in with a half-inhibitory concentration (IC50) of 0.1 µM.
As to `O=C(N[C@@H](CCCCNC1CC1c1ccccc1)C(=O)NCc1ccccc1)c1cccc(C(=O)N2CCNCC2)c1` (stereo partly drawn) [Example 11, 2-[3-(Piperazine-1-carbonyl)benzenecarbonylamino}-6-(trans-2-phenylcyclopropan-1-amino)-N-benzylhexanamide Ditrifluoroacetate], in assay [3], half-maximal inhibition (IC50) was put at 0.25 µM.
In the case of `Cc1ccc(CNC(=O)[C@H](CCCCNC2CC2c2ccccc2)NC(=O)c2ccc(-c3ccccc3)cc2)cc1` (stereo partly drawn) [Example 12, 2-[N-(4-Phenylbenzenecarbonyl)]amino-6-(trans-2-phenylcyclopropan-1-amino)-N-(4-methylbenzyl)hexanamide Hydrochloride], in assay [3], 0.6 µM corresponded to half-maximal inhibition (IC50). The concentration for 50% growth inhibition (GI50) in assay [1] worked out at 4.4 µM; in assay [2], 3.5 µM.
For the compound `O=C(N[C@@H](CCCCNC1CC1c1ccccc1)C(=O)NCc1ccc(F)cc1)c1ccc(-c2ccccc2)cc1` (stereo partly drawn) [Example 13, 2-[N-(4-Phenylbenzenecarbonyl)]amino-6-(trans-2-phenylcyclopropan-1-amino)-N-(4-fluorobenzyl)hexanamide Hydrochloride], in assay [3], inhibition was half-maximal at 0.75 µM (IC50). The GI50 in assay [1] is 4.4 µM; in assay [2] it was 3.9 µM.

Values taken from patent US9388123B2, “LSD1-selective inhibitor having lysine structure” (KYOTO UNIVERSITY, priority 2012, dated 2016).
